Experiment [1] concerns S. aureus 101. Nature of the experiment: MIC determination. It counts as cell-based, Staphylococcus aureus. The note with it: Staphylococcus aureus, 101, 18 h; read-out: Minimum inhibitory concentrations (MIC). On the procedure: (§1) Minimum inhibitory concentration (MIC) determination.
(§2) In order to choose the appropriate concentrations to be tested in the checkerboard experiments, minimum inhibitory concentrations (MICs) were determined first. […] Table 6) in microtiter plates. Stock solutions (10 mg/ml) of reference antibiotics were prepared in DMSO (except for tobramycin, gentamicin, lomefloxacin, tetracycline) and stored at 4° C. The bacteria were grown in Mueller-Hinton Broth (BBL Mueller-Hinton Broth II, cation adjusted). S. pneumoniae was grown in Mueller-Hinton Broth supplemented with 5% (v/v) lysed sheep blood. For the growth of H. influenzae HTM (Haemophilus test medium) was used containing Mueller-Hinton broth, yeast extract ([…], Difco) and supplemented with NAD and hematin (HTM Supplement, Oxoid SR0158E). M. catarrhalis was grown in Brain Heart Infusion medium (Oxoid). The bacteria were incubated for 18 hours at 37° C. in ambient air except for S. pneumoniae, H. influenzae and M. catarrhalis, which were incubated in the presence of 5% CO2. The MIC was determined as the lowest concentration of an individual drug that lead to no visible growth.

The subject of experiment [2] is S. pneumoniae 1/1. The experiment is described as follows: MIC determination. The note with it: Streptococcus pneumoniae; S. pneumoniae 1/1; 18 hours at 37° C., 5% CO2; read-out: Minimum inhibitory concentrations (MIC). The class given is cell-based, Streptococcus pneumoniae. On the procedure:
as §1, §2

Experiment [3] deals with Haemophilus influenzae ATCC 49766. The experiment is described as follows: MIC determination. It counts as cell-based. The note with it: Haemophilus influenzae, ATCC49766; H. Influenza 49766; 18 hours at 37° C., 5% CO2; read-out: Minimum inhibitory concentrations (MIC). On the procedure: as §1, §2
Experiment [4] concerns Klebsiella pneumoniae ATCC 33495. The experiment is described as follows: MIC determination. It counts as cell-based. The note with it: Klebsiella pneumoniae, ATCC33495; K. pneumonia 33495; 18 hours at 37° C.; read-out: Minimum inhibitory concentrations (MIC). The procedure:
as §1, §2

Experiment [5] deals with Moraxella catarrhalis RA 21. The experiment is described as follows: MIC determination. The note with it: Moraxella catarrhalis, RA21; M. catarrhalis RA 21; 18 hours at 37° C., 5% CO2; read-out: Minimum inhibitory concentrations (MIC). It counts as cell-based. The procedure: as §1, §2
In experiment [6] the test system is Staphylococcus aureus ATCC 25923. The experiment is described as follows: MIC determination. The class given is cell-based. The note with it: Staphylococcus aureus, ATCC25923; S. aureus 25923; 18 hours at 37° C.; read-out: Minimum inhibitory concentrations (MIC). The procedure: as §1, §2
Experiment [7] has as its system Streptococcus pneumoniae ATCC 49619. Nature of the experiment: MIC determination. The class given is cell-based. The note with it: Streptococcus pneumoniae, ATCC49619; S. pneumoniae 49619; 18 hours at 37° C., 5% CO2; read-out: Minimum inhibitory concentrations (MIC). The procedure:
as §1, §2

Experiment [8] concerns Haemophilus influenzae ATCC 49766. Nature of the experiment: checkerboard synergy assay with iclaprim. The note with it: antibiotic in combination with iclaprim; H. influenzae 49766. It counts as cell-based. On the procedure:
(§3) The synergistic potential of iclaprim against Gram-positive and Gram-negative bacteria was determined using the checkerboard assay as described in Eliopoulos GM and Moellering, Jr. RC (1991), Antimicrobial combinations, pp. 432-492, in V. Lorian (ed.), Antibiotics in laboratory medicine, 3rd Ed., The Williams & Wilkins Co., Baltimore, the entire disclosure of which is herein incorporated by reference, allowing multiple test concentrations of iclaprim to be assayed in the presence of various concentrations of the other antibiotic in microtiter plates. The same growth media and conditions were used as described in 3.2 below.
(§4) Two different dilutions were used for iclaprim depending on the MIC determined for the bacterium. […] Iclaprim and the other antibiotic being tested were also dispensed alone in the last row and in the last column, respectively, as controls.
(§5) The Fractional Inhibitory Concentrations (FIC) for each added agent were calculated and used to determine the sum of FIC (ΣFIC) indicative of the synergistic potential of a given combination as described in Veyssier P. (1999), Inhibiteurs de la dihydrofolate reductase, nitrohétérocycles (furanes) et 8-hydroxyquinoleines, pp. 995-1027, in A. Bryskier (ed.), Antibiotiques agents antibatériens et antifongiques, 1st Ed., Ellipses Edition Marketing SA, Paris, the entire disclosure of which is herein incorporated by reference. Synergy was defined whereby the ΣFIC was <0.5, indifference (no synergy nor antagonism) whereby ΣFIC was ≥0.5 but ≤4, and antagonism whereby ΣFIC was >4. Additivity as a special form of indifference was defined whereby the ΣFIC was ≥0.5 but <1, for example as described in Stevens, D L et al. (1998), In vitro antimicrobial effects of various combinations of penicillin and clindamycin against four strains of Streptococcus pyogenes, J. Antimicrob. Chemother. 42: 1266-1268, the entire disclosure of which is herein incorporated by reference.

The subject of experiment [9] is Klebsiella pneumoniae ATCC 33495. Nature of the experiment: checkerboard synergy assay with iclaprim. The class given is cell-based. The note with it: antibiotic in combination with iclaprim; K. pneumoniae 33495. On the procedure:
as §3, §4, §5

Experiment [10] relates to Moraxella catarrhalis RA 21. Nature of the experiment: checkerboard synergy assay with iclaprim. It counts as cell-based. The note with it: antibiotic in combination with iclaprim; M. catarrhalis RA 21. On the procedure:
as §3, §4, §5

Experiment [11] deals with Staphylococcus aureus ATCC 25923. The experiment is described as follows: checkerboard synergy assay with iclaprim. The class given is cell-based. The note with it: antibiotic in combination with iclaprim; S. aureus 25923. On the procedure:
as §3, §4, §5

Experiment [12] concerns Streptococcus pneumoniae ATCC 49619. Nature of the experiment: checkerboard synergy assay with iclaprim. The class given is cell-based. The note with it: antibiotic in combination with iclaprim; S. pneumoniae 49619. The procedure: as §3, §4, §5
Experiment [13] has as its system S. aureus 101. The experiment is described as follows: checkerboard synergy assay with iclaprim. It counts as cell-based, Staphylococcus aureus. The note with it: antibiotic in combination with iclaprim. On the procedure:
as §3, §4, §5

Experiment [14] deals with S. pneumoniae 1/1. Nature of the experiment: checkerboard synergy assay with iclaprim. It counts as cell-based, Streptococcus pneumoniae. The note with it: antibiotic in combination with iclaprim. The procedure: as §3, §4, §5

Positions of bridges follow the written chain, without caps; N, C: chain ends. Non-standard residues stand in square brackets, D forms with d. Residues, ends and D or L forms follow the SMILES beside them. *: point of attachment. Ileψ(thiazoline)Cys = CC[C@H](C)[C@H](N)C1=N[C@H](C(=O)*)CS1; dOrn = NCCC[C@@H](N)C(=O)O A value given as a limit tells only on which side of the number the result lay.

`CC[C@H](C)[C@H](N)C1=N[C@H](C(=O)N[C@@H](CC(C)C)C(=O)N[C@H](CCC(=O)O)C(=O)N[C@H](C(=O)N[C@H]2CCCCNC(=O)[C@H](CC(N)=O)NC(=O)[C@@H](CC(=O)O)NC(=O)[C@H](Cc3cnc[nH]3)NC(=O)[C@@H](Cc3ccccc3)NC(=O)[C@H]([C@@H](C)CC)NC(=O)[C@@H](CCCN)NC2=O)[C@@H](C)CC)CS1` [Bacitracin] ({Ileψ(thiazoline)Cys}-L[dE]IK[dOrn]I[dF]H[dD]N; lactam 4-C): the MIC in the experiment on S. aureus 101 [1] was 32 µg/mL; with S. pneumoniae 1/1 [2], 8 µg/mL; in experiment [3] it was greater than 128 µg/mL; in experiment [4] it was greater than 128 µg/mL; in experiment [5], 8 µg/mL; in experiment [6], greater than 128 µg/mL. Besides, in experiment [7], the MIC amounted to 32 µg/mL. Further, the “Con (Conclusion)” value is given as “Ind (Indifference (Ind))” in [8], “Ind (Indifference (Ind))” in experiment [9] and “Ad (Additivity (Ad))” in experiment [10]. In addition, the “Σ FIC” value in experiment [8] is recorded as 1.01-1.50; in experiment [9] it was 1.01-1.50; in experiment [10], 0.56-1.25; in experiment [11], 0.74-1.13; in experiment [12] it was 0.75-1.13; in the experiment with S. aureus 101 [13], 0.75-1.13. For the same compound, the “Σ FIC” value in the experiment on S. pneumoniae 1/1 [14] is 0.51-1.06.

As for `NC(=O)c1cc[n+](CC2=C(C(=O)O)N3C(=O)[C@@H](NC(=O)[C@@H](c4ccccc4)S(=O)(=O)[O-])[C@H]3SC2)cc1` [Cefsulodine, Cefsulodin], the MIC with S. aureus 101 [1] is 64 µg/mL; in the experiment with S. pneumoniae 1/1 [2], greater than 128 µg/mL; in experiment [3], greater than 128 µg/mL; in experiment [4] it was greater than 128 µg/mL; in [5], greater than 128 µg/mL; in [6], 64 µg/mL. Besides, the MIC in experiment [7] was determined as 16 µg/mL. The “Con (Conclusion)” value in [8], in experiment [9] and in experiment [10] was “Ind (Indifference (Ind))” each time. The “Σ FIC” value in experiment [8] was 1.01-1.50; in experiment [9], 1.01-1.50; in [10] it was 1.00-1.25; in experiment [11], 1.00-1.25; in experiment [12], 1.13-1.50; in the experiment with S. aureus 101 [13] it was 1.00-1.25. For the same compound, the “Σ FIC” value in the experiment with S. pneumoniae 1/1 [14] was 1.01-1.50.

With `CCC[C@@H]1C[C@@H](C(=O)N[C@@H]([C@H]2O[C@H](SC)[C@H](O)[C@@H](O)[C@H]2O)[C@H](C)Cl)N(C)C1` [Clindamycin], the MIC with S. aureus 101 [1] was 0.25 µg/mL; in the experiment on S. pneumoniae 1/1 [2], 0.125 µg/mL; in experiment [3], 8 µg/mL; in experiment [4] it was greater than 128 µg/mL; in experiment [5], 4 µg/mL; in experiment [6], 0.25 µg/mL. Besides, the MIC in [7] amounted to 0.125 µg/mL. For the same compound, the “Con (Conclusion)” value in experiment [8], in experiment [9] and in [10] was “Ind (Indifference (Ind))” throughout. For the same compound, the “Σ FIC” value is given as 1.13-1.50 in experiment [8]; 1.01-1.50 in [9]; 1.00-1.25 in [10]; 2.02-2.48 in [11]; 1.00-1.25 in experiment [12]; 2.03-2.50 in the experiment on S. aureus 101 [13]. For the same compound, the “Σ FIC” value in the experiment on S. pneumoniae 1/1 [14] was 0.63-1.06.

Regarding `Cc1onc(-c2ccccc2Cl)c1C(=O)N[C@@H]1C(=O)N2[C@@H]1SC(C)(C)[C@@H]2C(=O)O` [Cloxacillin], the MIC in the experiment on S. aureus 101 [1] was 2 µg/mL; with S. pneumoniae 1/1 [2], 64 µg/mL; in experiment [3], 16 µg/mL; in experiment [4], greater than 128 µg/mL; in experiment [5] it was 64 µg/mL; in experiment [6] it was 0.25 µg/mL. In addition, the MIC in [7] was determined as 8 µg/mL. For the same compound, the “Con (Conclusion)” value in [8] is “Ind (Indifference (Ind))”; in experiment [9], “Ind (Indifference (Ind))”; in [10] it was “Ad (Additivity (Ad))”. Moreover, the “Σ FIC” value is reported as 1.13-1.50 in experiment [8]; 1.01-2.50 in experiment [9]; 0.53-1.00 in [10]; 0.99-1.25 in experiment [11]; 1.00-1.25 in experiment [12]; 1.00-1.25 with S. aureus 101 [13]. For the same compound, in the experiment on S. pneumoniae 1/1 [14], the “Σ FIC” value is 1.00-1.25.

For the compound `C[C@H]1c2cccc(O)c2C(=O)C2=C(O)[C@]3(O)C(=O)C(C(N)=O)=C(O)[C@@H](N(C)C)[C@@H]3[C@@H](O)[C@@H]21` [Doxycycline], the MIC in the experiment with S. aureus 101 [1] was 16 µg/mL; with S. pneumoniae 1/1 [2], 2 µg/mL; in experiment [3] it was 0.5 µg/mL; in experiment [4], greater than 128 µg/mL; in [5], 0.5 µg/mL; in experiment [6], 0.5 µg/mL. Also, the MIC in experiment [7] is 0.5 µg/mL. Besides, the “Con (Conclusion)” value in [8], in [9] and in experiment [10] was “Ind (Indifference (Ind))” in each case. The “Σ FIC” value in experiment [8] was 1.00-1.00; in experiment [9] it was 1.01-1.50; in experiment [10], 1.02-1.50; in [11], 1.02-1.50; in experiment [12], 1.02-1.51; with S. aureus 101 [13], 1.06-1.50. Besides, in the experiment on S. pneumoniae 1/1 [14], the “Σ FIC” value was 1.25-1.50.

With `CC[C@H]1OC(=O)[C@H](C)[C@@H](O[C@H]2C[C@@](C)(OC)[C@@H](O)[C@H](C)O2)[C@H](C)[C@@H](O[C@@H]2O[C@H](C)C[C@H](N(C)C)[C@H]2O)[C@](C)(O)C[C@@H](C)C(=O)[C@H](C)[C@@H](O)[C@]1(C)O` [Erythromycin], the MIC was greater than 128 µg/mL in the experiment on S. aureus 101 [1]; 0.125 µg/mL in the experiment on S. pneumoniae 1/1 [2]; 8 µg/mL in experiment [3]; 128 µg/mL in [4]; 0.125 µg/mL in [5]; 0.5 µg/mL in [6]. The MIC in experiment [7] is 0.125 µg/mL. Moreover, the entries for the “Con (Conclusion)” value in experiment [8], in [9] and in experiment [10] were “Ad (Additivity (Ad))”, “Ad (Additivity (Ad))” and “Ind (Indifference (Ind))”, respectively. The “Σ FIC” value in experiment [8] is recorded as 0.75-1.00; in [10], 1.06-1.50; in experiment [11], 1.13-1.50; in experiment [12] it was 1.06-1.50; with S. aureus 101 [13] it was 1.01-1.50; with S. pneumoniae 1/1 [14] it was 1.06-1.50.
